Measured values as given in ChEMBL document CHEMBL5050844 (2019).

Key:
[1] = Induction of anti-CD3 antibodies-stimulated human T cell activation at 1.11 uM assessed fold increase in GM-CSF secretion measured by ELISA assay; format: functional, T cell line; further: reference of the scale not given here
[2] = Induction of anti-CD3/CD28 antibodies-stimulated human anergic T cell activation at 1.11 uM assessed fold increase in IFN-gamma secretion measured by ELISA assay; format: functional, T cell line
[3] = Induction of anti-CD3 antibodies-stimulated human T cell activation at 10 uM assessed fold increase in GM-CSF secretion measured by ELISA assay; format: functional, T cell line; further: reference of the scale not given here
[4] = Induction of anti-CD3/CD28 antibodies-stimulated human T cell activation at 0.3 uM assessed fold increase in CD25 expression measured by ELISA assay; format: functional, T cell line
[5] = Induction of anti-CD3/CD28 antibodies-stimulated human CD8+ T cell activation at 1.11 uM assessed fold increase in cell proliferation measured by flow cytometry analysis; format: functional, T cell line
[6] = Induction of activation of human CD56+ CD3- NK cells co-cultured with human K562 cells in 1:1 ratio and assessed as increase in TNF-alpha secretion at 2.5 uM measured by ELISA assay; format: functional, Natural killer cell
[7] = Induction of anti-CD3 antibodies-stimulated human T cell activation at 10 uM assessed fold increase in IFN-gamma secretion measured by ELISA assay; format: functional, T cell line; further: reference of the scale not given here
[8] = Induction of anti-CD3 antibodies-stimulated human exhausted T cell activation assessed fold increase in IFN-gamma secretion measured by ELISA assay; format: functional, T cell line; further: reference of the scale not given here
[9] = Induction of anti-CD3 antibodies-stimulated human CD8+ T cell activation at 1.11 uM assessed fold increase in CD69 expression measured by flow cytometry analysis; format: functional, T cell line; further: reference of the scale not given here
[10] = Induction of activation of human CD56+ CD3- NK cells co-cultured with human K562 cells in 1:1 ratio and assessed as increase in IFN-gamma secretion at 0.625 uM measured by ELISA assay; format: functional, Natural killer cell
[11] = test system: B cell; experiment: Induction of anti-IgM-stimulated human CD20+ B cell activation at 10 to 1000 uM assessed as increase in CD69 expression measured as mean fluorescence intensity AUC by flow cytometry analysis; format: functional, cell-based; settings: dose 10-1000 µM
[12] = Induction of anti-CD3/CD28 antibodies-stimulated human anergic T cell activation at 10 uM assessed fold increase in IFN-gamma secretion measured by ELISA assay; format: functional, T cell line
[13] = Induction of anti-CD3 antibodies-stimulated human T cell activation at 1.11 uM assessed fold increase in IFN-gamma secretion measured by ELISA assay; format: functional, T cell line; further: reference of the scale not given here
[14] = Induction of anti-CD3/CD28 antibodies-stimulated human T cell activation at 0.3 uM assessed fold increase in IL-2 secretion measured by ELISA assay; format: functional, T cell line
[15] = Induction of anti-CD3 antibodies-stimulated human exhausted CD4+ T cell activation assessed fold increase in CTLA4 expression measured by flow cytometry analysis; format: functional, T cell line; further: reference of the scale not given here
[16] = Induction of anti-CD3/CD28 antibodies-stimulated human T cell activation at 1.11 uM assessed fold increase in IFN-gamma secretion measured by ELISA assay; format: functional, T cell line
[17] = Induction of activation of human CD56+ CD3- NK cells co-cultured with human K562 cells in 1:1 ratio and assessed as increase in IFN-gamma secretion at 10 uM measured by ELISA assay; format: functional, Natural killer cell
[18] = Induction of anti-CD3/CD28 antibodies-stimulated human CD8+ T cell activation at 10 uM assessed fold increase in cell proliferation measured by flow cytometry analysis; format: functional, T cell line
[19] = Induction of allogenic human T cell activation at 10 uM assessed fold increase in cell proliferation; format: functional, T cell line
[20] = Induction of anti-CD3/CD28 antibodies-stimulated human T cell activation at 1 uM assessed fold increase in CD25 expression measured by ELISA assay; format: functional, T cell line
[21] = Induction of anti-CD3 antibodies-stimulated human exhausted T cell activation assessed fold increase in GM-CSF secretion measured by ELISA assay; format: functional, T cell line; further: reference of the scale not given here
[22] = Induction of anti-CD3 antibodies-stimulated human T cell activation at 8 uM assessed fold increase in IL-2 secretion measured by ELISA assay; format: functional, T cell line; further: reference of the scale not given here
[23] = Induction of anti-CD3/CD28 antibodies-stimulated human T cell activation at 10 uM assessed fold increase in IFN-gamma secretion measured by ELISA assay; format: functional, T cell line
[24] = Induction of allogenic human T cell activation at 3 uM assessed fold increase in cell proliferation; format: functional, T cell line
[25] = Induction of anti-CD3 antibodies-stimulated human CD4+ T cell activation at 1.11 uM assessed fold increase in CD69 expression measured by flow cytometry analysis; format: functional, T cell line; further: reference of the scale not given here
[26] = Induction of activation of human CD56+ CD3- NK cells co-cultured with human K562 cells in 1:1 ratio and assessed as increase in TNF-alpha secretion at 0.625 uM measured by ELISA assay; format: functional, Natural killer cell
[27] = Induction of anti-CD3 antibodies-stimulated human CD4+ T cell activation at 10 uM assessed fold increase in CD69 expression measured by flow cytometry analysis; format: functional, T cell line; further: reference of the scale not given here
[28] = Induction of anti-CD3 antibodies-stimulated human T cell activation at 1 uM assessed fold increase in CD25 expression measured by ELISA assay; format: functional, T cell line; further: reference of the scale not given here
[29] = Induction of anti-CD3/CD28 antibodies-stimulated human CD4+ T cell activation at 10 uM assessed fold increase in cell proliferation measured by flow cytometry analysis; format: functional, T cell line
[30] = Induction of anti-CD3/CD28 antibodies-stimulated human CD4+ T cell activation at 10 uM assessed fold increase in CD69 expression measured by flow cytometry analysis; format: functional, T cell line
[31] = Induction of anti-CD3/CD28 antibodies-stimulated human T cell activation at 10 uM assessed fold increase in GM-CSF secretion measured by ELISA assay; format: functional, T cell line
[32] = Induction of anti-CD3 antibodies-stimulated human T cell activation at 1 uM assessed fold increase in IL-2 secretion measured by ELISA assay; format: functional, T cell line; further: reference of the scale not given here
[33] = Induction of anti-CD3 antibodies-stimulated human T cell activation at 8 uM assessed fold increase in CD25 expression measured by ELISA assay; format: functional, T cell line; further: reference of the scale not given here
[34] = Induction of anti-CD3/CD28 antibodies-stimulated human CD4+ T cell activation at 1.11 uM assessed fold increase in cell proliferation measured by flow cytometry analysis; format: functional, T cell line
[35] = Induction of anti-CD3/CD28 antibodies-stimulated human CD8+ T cell activation at 1.11 uM assessed fold increase in CD69 expression measured by flow cytometry analysis; format: functional, T cell line
[36] = Induction of anti-CD3 antibodies-stimulated human exhausted T cell activation assessed fold increase in IL-2 secretion measured by ELISA assay; format: functional, T cell line; further: reference of the scale not given here
[37] = Induction of anti-CD3/CD28 antibodies-stimulated human T cell activation at 4 uM assessed fold increase in CD25 expression measured by ELISA assay; format: functional, T cell line
[38] = Induction of anti-CD3 antibodies-stimulated human CD8+ T cell activation at 10 uM assessed fold increase in CD69 expression measured by flow cytometry analysis; format: functional, T cell line; further: reference of the scale not given here
[39] = Induction of anti-CD3/CD28 antibodies-stimulated human T cell activation at 4 uM assessed fold increase in IL-2 secretion measured by ELISA assay; format: functional, T cell line

Row | SMILES | fold change (FC) [1] | fold change (FC) [2] | fold change (FC) [3] | fold change (FC) [4] | fold change (FC) [5] | fold change (FC) [6] | fold change (FC) [7] | fold change (FC) [8] | fold change (FC) [9] | fold change (FC) [10] | AUC [11] | fold change (FC) [12] | fold change (FC) [13] | fold change (FC) [14] | fold change (FC) [15] | fold change (FC) [16] | fold change (FC) [17] | fold change (FC) [18] | fold change (FC) [19] | fold change (FC) [20] | other results
1 | Cc1cc(C(=O)Nc2cccc([C@@H](C)Cc3nncn3C)c2)nc(C2CC2)n1 | <=1.5 | <=2.5 | 1.51 | 1.01 | 2.01 | <=1 | <=2 | <=1.4 | <=1.2 | 1.01 | 1.01 | <=2.5 | <=2 | 1.01 | <=1.4 | 3.01 | 2.01 | >4 | <=2 | 1.01 | fold change (FC) [21]: <=1.4; fold change (FC) [22]: 0.101; fold change (FC) [23]: >4; fold change (FC) [24]: <=2; fold change (FC) [25]: 1.401; fold change (FC) [26]: <=1; fold change (FC) [27]: >1.601; fold change (FC) [28]: 0.801; fold change (FC) [29]: >4; fold change (FC) [30]: 1.401; fold change (FC) [31]: 2.01; fold change (FC) [32]: 0.051; fold change (FC) [33]: >=1.001; fold change (FC) [34]: >4; fold change (FC) [35]: 1.201; fold change (FC) [36]: <=2.5; fold change (FC) [37]: 1.01; fold change (FC) [38]: 1.201; fold change (FC) [39]: 2.51
2 | Cc1cc(C(=O)Nc2cccc([C@H](C)Cc3nncn3C)c2)nc(C2CC2)n1 | 2.01 | <=2.5 | 2.01 | 1.51 | <=2 | 2.01 | >4 | 1.41 | <=1.2 | 2.01 | > 1.51 | <=2.5 | 2.01 | 5 | >1.61 | 2.01 | 2.01 | >4 | 2.01 | >=1.76 | fold change (FC) [21]: >1.61; fold change (FC) [22]: >=0.201; fold change (FC) [23]: >4; fold change (FC) [24]: <=2; fold change (FC) [25]: <=1.2; fold change (FC) [26]: 1.01; fold change (FC) [27]: >1.601; fold change (FC) [28]: >=1.001; fold change (FC) [29]: >4; fold change (FC) [30]: >1.601; fold change (FC) [31]: >4; fold change (FC) [32]: >=0.201; fold change (FC) [33]: >=1.001; fold change (FC) [34]: <=2; fold change (FC) [35]: <=1.2; fold change (FC) [36]: <=2.5; fold change (FC) [37]: >=1.76; fold change (FC) [38]: 1.401; fold change (FC) [39]: >=7.5
